In PubChem BioAssay AID720577 (The Scripps Research Institute Molecular Screening Center, 2013):
pIC50: −log10 of the molar value. Active and inactive are the calls of the source. How the calls were made is not given here.

Biological target: CCHF virus vOTU protease domain (L polyprotein)
Assay: CCHF virus vOTU protease inhibition, Pep AMC substrate counterscreen, fluorescence, confirmatory IC50 (AID 720577)
Details: purified vOTU

Row | SMILES | pIC50 | IC50
1 | CC(=O)N(C1=C(Cl)C(=O)c2ccccc2C1=O)c1ccc(C(=O)O)cc1 | 5.32 | 
2 | COc1ccc2noc3c2c1C(=O)c1ccccc1-3 | 5.20 | 
3 | COC1=C(N)C(=O)c2nc(C)ccc2C1=O | 5.30 | 
4 | CN1CCN(C2=C(Cl)C(=O)c3ccccc3C2=O)CC1 | 5.97 | 
5 | CC(=O)N(C1=C(Cl)C(=O)c2ccccc2C1=O)C1CCCCC1 |  | inactive
6 | CCn1nc(/C=C/c2ccccc2)nc2c(=O)n(C)c(=O)nc1-2 | 6.31 | 
7 | CC(=O)N(/N=C1\Sc2ccccc2C1=O)c1ccccc1C |  | inactive
8 | Oc1c(N=Nc2nn[nH]n2)ccc2ccccc12 |  | inactive
9 | CN(C1=C(NC(=O)c2ccccc2)C(=O)c2ccccc2C1=O)C1CCS(=O)(=O)C1 (stereo unspecified) | 5.02 | 
10 | Cc1ccc(S(=O)(=O)/N=C2\C=C(Nc3cccc(C(=O)O)c3)C(=O)c3ccccc32)c(C)c1 | 5.63 | 
11 | O=C1C(Nc2cccc(O)c2)=C(N2CCCCC2)C(=O)c2ccccc21 |  | inactive
12 | CC1CCCC(NC(=O)COC(=O)c2ccc([N+](=O)[O-])s2)C1C (stereo unspecified) |  | inactive
13 | O=C(O)c1cccc(NC2=C(N3CCOCC3)C(=O)c3ccccc3C2=O)c1 |  | inactive
14 | O=C1C(=O)c2ccccc2-c2ccccc21 | 5.43 | 
15 | COc1cc2c(cc1OC)-c1c(OC)c(OC)cc3c1C(C2)N(C)CC3 (stereo unspecified) |  | > 115 µM (inactive)
16 | COc1ccc(/C=N/NC(=O)c2nn(-c3ccccc3)c(=O)c3c(N)scc23)cc1 |  | inactive
17 | C=CCN1C(=O)/C(=C/c2ccc(OC(C)=O)c(OCC)c2[N+](=O)[O-])SC1=S |  | inactive
18 | Cc1ccc(NC2=C(N3CCCCC3)C(=O)c3ccccc3C2=O)cc1 |  | inactive
19 | C=CCN1C=CC(=C/C=C(/C#N)C(=O)OCC)C=C1 |  | inactive
20 | O=C(O)c1ccc(S(=O)(=O)/N=C2\C=C(Nc3ccccc3F)C(=O)c3ccccc32)cc1 | 5.91 | 
21 | COc1cc(NC(C)CCCN)c2ncccc2c1 (stereo unspecified) |  | inactive
22 | COC1=C(Br)C(=O)c2nc(C)ccc2C1=O |  | inactive

Row | SMILES | pIC50 | IC50
23 | CC1COCC(C)N1C1=C(Cl)C(=O)c2ccccc2C1=O (stereo unspecified) |  | inactive
24 | Cc1c(Cl)cnc(NC(=O)COC(=O)c2ccc([N+](=O)[O-])s2)c1Cl |  | inactive
25 | COc1ccc(CNC(=O)c2c(C)oc3c2C(=O)c2ccccc2C3=O)cc1 |  | inactive
26 | CCc1ccc(S(=O)(=O)Nc2cc(SCC(=O)O)c(O)c3ccccc23)cc1 |  | inactive
27 | Nc1cc2c(cc1Br)[nH]c(=O)c1ccccc12 | 5.34 | 
28 | CC(=O)Nc1ccc(S(=O)(=O)NC2=C(N3CCN(c4ccc(F)cc4)CC3)C(=O)c3ccccc3C2=O)cc1 |  | inactive
29 | O=C1C(=O)c2cccnc2-c2ncccc21 |  | inactive
30 | CN(C)c1ccc2nc3ccc(=O)cc-3sc2c1 |  | > 115 µM (inactive)
31 | O=C(COC(=O)c1ccc([N+](=O)[O-])s1)Nc1ccc(F)cc1 |  | inactive
32 | CN1/C(=C\C=C2C(=O)NC(=O)NC2=O)C(C)(C)c2ccccc21 |  | inactive
33 | COCCN1C=C2C(=O)C(C)(OC(=O)C3CCCC3)C(=O)C(c3ccccc3)=C2C=C1CCCC(=O)OC (stereo unspecified) |  | inactive
34 | CCOC(=O)C1=C(COC(=O)c2ccc([N+](=O)[O-])s2)NC(=O)NC1C (stereo unspecified) |  | inactive
35 | Cn1c(=O)c2c(-c3ccccc3)n(-c3ccc(N)cc3)cc2n(C)c1=O |  | inactive
36 | CC(=O)N(C)c1ccc(N=Cc2cc3c(cc2[N+](=O)[O-])OCO3)cc1 |  | inactive
37 | CC(=O)c1ccc(NC(=S)Nc2cccc3cnccc23)cc1 | 5.11 | 
38 | Cc1cc(NC2=CC(=O)C(=O)c3ccccc32)no1 |  | inactive
39 | Cc1cc(C)c(S(=O)(=O)/N=C2\C=C(Nc3ccc(C(=O)O)cc3)C(=O)c3ccccc32)c(C)c1 | 5.34 | 
40 | CC(=O)N(C1=C(N)C(=O)c2ccccc2C1=O)c1ccccc1 |  | inactive
41 | O=c1[nH]c(=S)[nH]c2c1C(c1ccc(Br)cc1)c1c([nH]c(=S)[nH]c1=O)O2 |  | inactive
42 | O=C1OC(Nc2cc(Br)cc3cccnc23)c2ccccc21 (stereo unspecified) | 5.26 | 
43 | O=C(c1ccco1)[C@@H]1[C@@H]2C(=O)N(c3ccc(Br)cc3)C(=O)[C@@H]2C2c3ccccc3C=CN21 (stereo partly specified) |  | inactive
44 | CCC(CNc1cc(OC)cc2cccnc12)NC1CCCCC1 (stereo unspecified) | 5.16 | 

Row | SMILES | pIC50 | IC50
45 | O=C1C(N2CCOCC2)=C(n2nnc3ccccc32)C(=O)c2ccccc21 | 5.20 | 
46 | Cc1ccccc1NC1=C/C(=N\S(=O)(=O)c2ccc(C(=O)O)cc2)c2ccccc2C1=O | 6.27 | 
47 | O=C(OCc1nnc(-c2ccccc2)o1)c1ccc([N+](=O)[O-])s1 |  | inactive
48 | CC(=O)N(/N=C1\Sc2ccccc2C1=O)c1cccc(C)c1 |  | inactive
49 | CCCNC1=C(N(C(C)=O)c2cccc(F)c2)C(=O)c2ccccc2C1=O |  | > 12.7 µM (inactive)
50 | NC(=S)N=Nc1c(O)cc(O)c2[nH]c(=O)ccc12 |  | inactive
51 | O=C(COC(=O)c1ccc([N+](=O)[O-])s1)Nc1ccccc1 |  | inactive
52 | Cc1nc2c(o1)C(=O)c1ccccc1C2=Nc1ccccc1 |  | inactive
53 | Cc1ccc(NC2=C/C(=N/S(=O)(=O)c3cccs3)c3ccccc3C2=O)cc1 | 5.75 | 
54 | CCOC(=O)C1CCN(C(=O)c2c(C)oc3c2C(=O)c2ccccc2C3=O)CC1 |  | inactive
55 | CC(=O)NC1=C(N(C)C2CCS(=O)(=O)C2)C(=O)c2ccccc2C1=O (stereo unspecified) |  | inactive
56 | COc1ccccc1NC(=O)COC(=O)c1ccc([N+](=O)[O-])s1 |  | inactive
57 | O=S(=O)(Nc1cc2nc3ccccc3nc2n1Cc1ccccc1)c1ccc(Cl)cc1 | 5.12 | 
58 | CC(=O)c1ccc(NC2=C(N3CCOCC3)C(=O)c3ccccc3C2=O)cc1 |  | inactive
59 | CC[n+]1c(-c2ccccc2)c2cc(N)ccc2c2ccc(N)cc21 | 5.48 | 
60 | CC(C)=CCC1=C(OCC(=O)O)C(=O)c2ccccc2C1=O |  | inactive
61 | Nc1scc2c(C(=O)N/N=C/c3ccc(Cl)cc3)nn(-c3ccccc3)c(=O)c12 |  | inactive
62 | O=C1C(=NO)CCc2ccccc21 |  | inactive
63 | Cc1cc(=O)c2c(o1)C(=O)c1occc1C2=O |  | inactive
64 | CN(C)c1cccc2c1c(NS(=O)(=O)c1cn(C)cn1)nn2C |  | inactive
65 | O=c1[nH]c(Nc2ccccc2)cc2cc(Br)ccc12 | 5.84 | 
66 | O=C(COC(=O)c1ccc([N+](=O)[O-])s1)NCc1ccc(F)cc1 |  | inactive

Row | SMILES | pIC50 | IC50
67 | CN=c1sc2c(n1C)C(=O)c1ccccc1C2=O | 5.24 | 
68 | O=C(c1ccccc1)c1coc2c1C(=O)c1ccccc1C2=O |  | inactive
69 | O=C1NC(c2ccc(-c3ccccc3[N+](=O)[O-])o2)C(C(=O)c2ccc(Cl)cc2)C(O)(C(F)(F)F)N1 (stereo unspecified) |  | inactive
70 | O=C1C=C(Nc2ccccc2C(=O)O)c2ccccc2C1=O | 5.13 | 
71 | O=C1C(Nc2ccccc2)=C(N2CCCCC2)C(=O)c2ccccc21 |  | inactive
72 | CCCCCCCCN1C(=O)[C@@H](CC(=O)NCCCOCCCC)C[C@@]2(C(=O)OC)C1=C[C@H](C(C)C)O[C@@H]2C1CC1 |  | inactive
73 | CCOC(=O)N1CCN(C2=C(NS(=O)(=O)c3ccc(C)cc3)C(=O)c3ccccc3C2=O)CC1 |  | inactive
74 | CN(C)S(=O)(=O)c1cccc(NC(=S)Nc2cccc3cnccc23)c1 |  | inactive
75 | O=[N+]([O-])c1ccccc1-c1ccc(C(=S)N2CCCC2)o1 |  | inactive
76 | CCC(COC)Oc1cc(NCc2ccccc2)c2ncn(C(C)C)c2c1 (stereo unspecified) |  | inactive
77 | Cc1ccc(NC2=CC(=O)C(=O)c3ccccc32)cc1 |  | inactive
78 | Cc1ccc(Cl)cc1NC1=C/C(=N\S(=O)(=O)c2cccs2)c2ccccc2C1=O | 5.63 | 
79 | CN(C)c1ccc(C=c2c3cc(O)ccc3n3c2cc(-c2ccccc2)[n+]3C)cc1 | 5.36 | 
80 | COc1ccc(S(=O)(=O)/N=C2\C=C(Nc3ccc(O)cc3)C(=O)c3ccccc32)cc1 | 5.87 | 
81 | CCc1ccc(S(=O)(=O)/N=C2\C=C(Nc3cccc(C(=O)O)c3)C(=O)c3ccccc32)cc1 | 5.60 | 
82 | COc1ccc(/C=N/NC(=O)c2nn(-c3ccc(Cl)cc3)c(=O)c3c(N)scc23)cc1 |  | inactive
83 | CC1OC(CC(=O)O)CC2=C1C(=O)c1c(O)cccc1C2=O (stereo unspecified) |  | inactive
84 | CN1CCC/C1=C/C=C1\SC(=S)NC1=O |  | inactive
85 | COc1cc(C=c2c3ccccc3n3c2cc(-c2ccccc2)[n+]3C)cc(OC)c1OC | 5.24 | 
86 | COc1ccc(-n2c3nc4ccccc4nc3c3c(=N)oc(C)nc32)cc1 |  | > 115 µM (inactive)
87 | O=S(=O)(c1ccc2nc(-c3ccco3)c(-c3ccco3)nc2c1)N1CCOCC1 |  | > 115 µM (inactive)
88 | O=C1Cc2ccccc2C(=O)N1 | 6.22 | 

Row | SMILES | pIC50 | IC50
89 | O=C(O)CSc1cc(NS(=O)(=O)c2ccc(Br)cc2)c2ccccc2c1O |  | inactive
90 | Cc1ccc(S(=O)(=O)/N=C2\C=C(Nc3cccc(C(=O)O)c3)C(=O)c3ccccc32)cc1 | 5.70 | 
91 | COc1ccc(NC(=S)Nc2ccc3nsnc3c2)cc1 | 5.16 | 
92 | CCOC(=O)c1cc2c(ccn2C)n1Cc1ccccc1C |  | inactive
93 | CCCCn1c(NS(=O)(=O)c2ccccc2)c(S(=O)(=O)c2ccc(C)cc2)c2nc3ccccc3nc21 |  | > 115 µM (inactive)
94 | NC1=C(Br)C(=O)c2ccccc2C1=O | 5.18 | 
95 | O=C1Nc2ccc([N+](=O)[O-])cc2C1=Nc1cccc(CO)c1 |  | inactive
96 | Cc1cnc(C2OCCO2)c2cccc(N)c12 | 5.27 | 
97 | COC(=O)c1nc(-c2ccc3c(n2)C(=O)C(N)=C(OC)C3=O)c(N)c(-c2ccc(OC)c(OC)c2O)c1C | 5.59 | 
98 | COc1cc(NCCCC(C)N)c2ncccc2c1 (stereo unspecified) | 5.34 | 
99 | CC(C)C[C@H](NC(=O)c1[nH]cnc1C(=O)N[C@@H](C)C(=O)OC(C)(C)C)C(=O)OC(C)(C)C |  | inactive
100 | CCOc1ccc2noc3c2c1C(=O)c1ccccc1-3 |  | inactive
101 | NS(=O)(=O)c1ccc(NC(=O)COC(=O)c2ccc([N+](=O)[O-])s2)cc1 |  | inactive
102 | CC1(C)C=C2C(=NN(c3ccccc3)C(N)=C2C#N)CO1 |  | inactive
103 | CCCCCCCCCCCCCCCC[n+]1cccc2ccccc21 | 5.38 | 
104 | CC(NC1=CC(=O)c2cccnc2C1=O)C(O)c1ccccc1 (stereo unspecified) | 5.36 | 
105 | COc1cc(Br)c(C(=O)c2nccc3cc(OC)c(OC)cc23)cc1OC | 5.95 | 
106 | CCOC(=O)c1cc2c(=Cc3ccc(N(C)C)cc3)c3ccccc3n2[n+]1C | 5.24 | 
